Measured values as given in patent US20220288057A1, “CONJOINT THERAPY FOR TREATING SEIZURE DISORDERS” (XENON PHARMACEUTICALS INC., priority 2021, published 2022).
Read-outs that look alike come from different tables or passages of the source. One block for each molecule: values may come before it.

Experiments:
[1] = test system: MES assay; conditions: Barton et al. 2001; cited from earlier work
[2] = Plasma and brain concentrations in 6 Hz studies (LC-MS/MS); format: in vivo, mouse; conditions: intraperitoneal
Method: Sample Collection and Preparation: Mice were anesthetized by isoflurane inhalation (TECH-018) until they reached a surgical plane of anesthesia. Then a syringe (1 mL syringe with a 22 gauge needle) was inserted under the sternum into the heart (TECH-031). Approximately 0.5 mL of blood was collected, deposited into a K2EDTA tube, and stored on ice. Animals were then euthanized by cervical dislocation (TECH-018). Brains were removed, placed into a pre-weighed vial, and snap frozen on dry ice. At the end of the sample collection, blood was centrifuged at 4000 rpm for 10 minutes at 4° C., and the plasma pipetted into a labeled tube. All samples were stored in a −80° C. freezer until bioanalysis (8 days after sample collection for Studies 3A and 3B; 20 days after sample collection for Study 3C).
Plasma and Tissue Sample Analysis: Bead mill polypropylene tubes containing weighed brain tissues were thawed at room temperature and 3 mL of homogenization solvent (water:acetonitrile (1:1, v:v)) was added. The tubes were placed in the Bead Mill Homogenizer (Bead Ruptor Elite Model, Omni International) and shaken at a velocity of 3.70 m/s for a single cycle lasting 30 seconds. The homogenized tube was centrifuged at 4000 rpm for 20 minutes, the supernatant was transferred to a 1.5 mL Eppendorf tube, and stored frozen at −80° C. until analysis. All samples including plasma and brain homogenate extracts (including calibration and quality control (QC) samples prepared in K2EDTA rat plasma), were extracted by protein precipitation. […] The samples in the 1.5 mL tubes were vortex mixed and then centrifuged for 20 minutes at 13,000 rpm. Fifty microliters of the supernatant was mixed with 150 μL of water/acetonitrile (1:1) in a 96 well plate which was centrifuged post mixing for 20 minutes at 4000 rpm, and was then ready for analysis by liquid chromatography tandem mass spectrometry (LC-MS/MS).
Samples were analyzed by a research-grade LC-MS/MS method as follows: […]

[3] = test system: 6 Hz psychomotor seizures in CF-1 mice; experiment: Mouse 6 Hz psychomotor seizure assay (34 milliampere, 3 s); format: in vivo; conditions: for Fraction Seizing: Levetiracetam 300 mg/kg IP 1 h alone
Method: It was evaluated whether the combination of both compounds is favorable or unfavorable for efficacy by dosing Compound A and Levetiracetam alone and in combination, each at a dose that produces sub-maximal efficacy on its own. […] Plasma and brain samples were analyzed to gain an understanding of how the combination of Compound A and Levetiracetam may affect pharmacokinetics and pharmacodynamics. […] 6 Hz Psychomotor Seizure Assay: […] The animal was then securely restrained and a pair of electrodes was applied to the eyes (Electro Convulsive Therapy Unit 57800, Ugo Basile). […] Data Processing and Analysis: Statistical data analysis was performed using GraphPad Prism (version 8.2.1). Dose-response data was analyzed using a Kruskal-Wallis test, followed by Dunn's multiple comparisons. […] Dose- and concentration-response curves were generated using the Hill Langmuir equation: […]

[4] = test system: tonic hindlimb seizure following corneal stimulation in CF-1 mice; experiment: Mouse maximal electroshock (MES) assay, 60 Hz 50 mA corneal stimulation; format: in vivo
Method: The interaction of Compound A with other ASMs was evaluated after oral dosing in the mouse maximal electroshock (MES) assay to determine whether some combinations were favorable or unfavorable. Efficacy was quantified by calculating the fraction of animals with a tonic hindlimb seizure following corneal stimulation. Compound Preparation: Compound A was initially solubilized in DMSO. This solution was then added into a 0.5% methyl cellulose solution to create a more even and less aggregated compound suspension. Serial dilutions were prepared from the tube with the highest concentration of Compound A and the compound suspensions were further vortexed prior to animal dosing. The final concentration of DMSO was 5%, an amount with no apparent toxicity or neuroprotection in the MES assay. […] Animals: Adult male CF-1 albino mice (25-35 g) purchased from Harlan-Envigo were used. The mice were housed four per cage and had access to filtered water and chow ad libidum, throughout the experiment. MES Assay: Compounds were administered orally by gavage before testing unless indicated otherwise. During MES testing, a 60-Hz alternating current (50 mA) was delivered for 0.2 seconds through corneal electrodes to the mice. A drop of 0.5% Alcaine solution was placed on the eye prior to current delivery. The electrodes were subsequently placed gently onto the eyes of the animal and the electrical shock was initiated by triggering through a foot-pedal activator. The animals were restrained by hand and gently released as the shock was delivered and the seizure commenced. Animals were monitored for hind limb tonic extension as the end point for this test. Statistical analysis: All statistics were calculated using Prism version 7 software (Graphpad Software). The method used for each experiment is indicated in the results section. Concentration-response curves were calculated as best fits to the equation […] where X was the log of plasma concentration. Unless indicated otherwise, bottom was constrained to be 0. Top was constrained to be the value determined experimentally by vehicle control measurements. Compound A Dose Response: […]

- concentration at 1 h ([2]; CF-1, mouse, brain, 300 mg/kg, Study 3B, Levetiracetam 300 mg/kg IP 1 h alone, read-out: Brain): 861 ± 120 µM
- concentration at 1 h ([2]; CF-1, mouse, brain, Study 3C, analyte Levetiracetam, 300 mg/kg IP + Compound A 4 mg/kg PO, read-out: Brain): 1100 ± 265 µM
- concentration at 1 h ([2]; CF-1, mouse, plasma, 300 mg/kg, Study 3B, Levetiracetam 300 mg/kg IP 1 h alone, read-out: Plasma): 1500 ± 320 µM
- concentration at 1 h ([2]; mouse, brain, 300 mg/kg, Studies 3B+3C combined, Levetiracetam 300 mg/kg IP 1 h alone, read-out: Brain): 996 µM
- concentration at 1 h ([2]; mouse, brain, 300 mg/kg, Study 3B, Levetiracetam 300 mg/kg IP 1 h alone, read-out: Brain): 861 ± 120 µM
- concentration at 1 h ([2]; mouse, brain, Studies 3B+3C combined, analyte Levetiracetam, 300 mg/kg IP + Compound A 4 mg/kg PO, read-out: Brain): 1050 µM
- concentration at 1 h ([2]; mouse, brain, Study 3B, analyte Levetiracetam, 300 mg/kg IP + Compound A 4 mg/kg PO, read-out: Brain): 1010 µM
- concentration at 1 h ([2]; mouse, brain, Study 3C, analyte Levetiracetam, 300 mg/kg IP + Compound A 4 mg/kg PO, read-out: Brain): 1100 µM
- concentration at 1 h ([2]; mouse, plasma, 300 mg/kg, Studies 3B+3C combined, Levetiracetam 300 mg/kg IP 1 h alone, read-out: Plasma): 1640 µM
- concentration at 1 h ([2]; mouse, plasma, 300 mg/kg, Study 3B, Levetiracetam 300 mg/kg IP 1 h alone, read-out: Plasma): 1500 ± 320 µM
- concentration at 1 h ([2]; mouse, plasma, Studies 3B+3C combined, analyte Levetiracetam, 300 mg/kg IP + Compound A 4 mg/kg PO, read-out: Plasma): 1730 µM
- concentration at 1 h ([2]; mouse, plasma, Study 3B, analyte Levetiracetam, 300 mg/kg IP + Compound A 4 mg/kg PO, read-out: Plasma): 1350 µM
- concentration at 1 h ([2]; mouse, plasma, Study 3C, analyte Levetiracetam, 300 mg/kg IP + Compound A 4 mg/kg PO, read-out: Plasma): 2160 µM
Compound: CC[C@@H](C(N)=O)N1CCCC1=O [Levetiracetam, reference compound]
- ED50 [1]: > 500 mg/kg
- average efficacy in previous experiments ([3]; Levetiracetam 300 mg/kg IP 1 h, 34 milliampere 6 Hz): 35%
- Fraction Seizing ([3]; Studies 3B+3C combined): 14/16
- Fraction Seizing ([3]; Study 3B): 8/8
- Fraction Seizing ([3]; Study 3C): 6/8
- animals protected from seizing ([3]; Study 3C, Levetiracetam 300 mg/kg IP alone): 2/8
- fraction of mice without tonic seizures ([4]; Levetiracetam 120 mg/kg IP 2 h): 0/6
- fraction of mice without tonic seizures ([4]; Levetiracetam 150 mg/kg IP 2 h): 2/8

Compound: O=C1NC(=O)C(c2ccccc2)(c2ccccc2)N1 [Phenytoin, reference compound]
- maximum % seizures of fitted curve, reflecting efficacy of Phenytoin alone ([4]; Phenytoin 2 mg/kg): 75%
- fraction of animals without tonic seizures ([4]; Phenytoin 2 mg/kg IP 2 h alone): 6/24

Compound: CCCC(CCC)C(=O)O [Valproic Acid, reference compound]
- IC50 ([4]; Mus musculus, ip, read-out: IC50 for Valproic Acid (plasma level, inhibition of tonic seizures)): 1.44 mM
- number of mice without tonic seizures/total ([4]; Vehicle PO + Valproic Acid 56 mg/kg IP 0.5 h): 1/7
- number of mice without tonic seizures/total ([4]; Vehicle PO + Valproic Acid 100 mg/kg IP 0.5 h): 5/15
- number of mice without tonic seizures/total ([4]; Vehicle+Valproic Acid at 56 mg/kg as printed, comparator of the 30 mg/kg combination): 0/8
- decrease of IC50 for Valproic Acid ([4]; combined with 1 mg/kg Compound A vs alone): 2.37 fold
